Laboratory results: patent publication US12589087B2, “Enantiomer selective action on neurotransmission” (The Board of Trustees of the Leland Stanford Junior …, priority 2021, dated 2026)

Tests used:
[1] = test system: C57Bl/6 mice; experiment: SHIRPA, activity chamber open field and hot plate after single injection; type: in vivo, mouse
Procedure: Dosing: (R)-2MeGlu (30, 100, 300, or 900 mg/kg), (S)-2MeGlu (30, 100, 300, or 900 mg/kg), rac-2MeGln (30, 100, 300, or 900 mg/kg) and vehicle (PBS) were administered at 10 ml/kg IP dosing volume. Three mice were dosed once with the assigned drug (100, 300, or 900 mg/kg) or vehicle and immediately placed in a new cage for novel cage observation. Subsequently, six mice were dosed once with the assigned drug (30 or 100 mg/kg) or vehicle and tested by SHIRPA, activity chamber, and then hot plate tests.
Hot Plate apparatus (IITC Inc. Model 39) was set to 55° C.±0.2. On testing day, mice were placed on the surface of the hot plate and covered by a transparent glass cylinder (25 cm high and 12 cm diameter). A 30 second cutoff time was assigned. A remote foot-switch pad was used to control the start/stop/reset function. Latency time was recorded when hind paw licking or jumping off first occurred.
The SHIRPA preliminary screen designed by Rogers et al. (1997) was modified and used to assess the general health and behavioral traits of the mice for the initial five minutes after drug administration. The test was conducted in three different testing locations: A cylindrical clear plastic viewing jar (15 cm height×10 cm diameter), a polycarbonate cage (Arena) with 10 cm×10 cm squares on the floor, and a 1 cm×1 cm wire grid. The test began by placing the mouse in the clear plastic viewing jar for 60 seconds, and the behavioral parameters were monitored and recorded. The mouse was then transferred to an open-top arena by releasing them from 25 cm above the floor of the arena. Upon completion of monitoring the parameters inside the arena, the mouse was removed from the arena by the tail. Behavioral parameters monitored were according to Portmann et al. (2014).
Assessment was made in an Open Field Activity Arena (Med Associates Inc., St. Albans, VT. Model ENV-515) mounted with three planes of infrared detectors within a specially designed sound-attenuating chamber (Med Associates Inc., St. Albans, VT. MED-017M-027). The arena was 43 cm (L)×43 cm (W)×30 cm (H) and the sound-attenuating chamber was 74 cm (L)×60 cm (W)×60 cm (H). The mice were placed in the corner of the testing arena and allowed to explore the arena for 60 min while being tracked automatically. Parameters measured include distance moved, velocity, rearing, and times spent in the periphery and center of the Arena. Periphery was defined as the zone 5 cm away from the arena wall. The Arena was cleaned with a 1% Virkon solution at the end of the trial. […] The novel cage protocol is conducted on the benchtop in a lighted room using a clean home cage, and tests habituation using video recording and scoring of behavioral performance. Moreover, the novel cage allows the tester to visualize any other side effects such as seizure or repetitive jumping. The activity chamber is in an enclosed box, and the test is done in the dark, without bedding, and in a sound isolating chamber. The activity chamber measures distance moved using infrared beams and without video recordings.
Exploratory behavioral tests were performed exactly as previously described by us using 2-month-old C57Bl/6 male mice, Example 1. First, we assessed safety and tolerability of acute exposure to 4APA enantiomers in 22 mice by novel cage observation at 100, 300, or 900 mg/kg IP compared to vehicle (PBS) IP (n=3 or 4 mice per group without sample calculation, based on our previous study. Next, we evaluated 24 drug naïve mice with a 23-measure battery of neurologic dysfunction in mice (SHIRPA) (Rogers et al., 2001), automated activity chamber assessment, and hot plate latency acutely following 30 or 100 mg/kg IP compared to vehicle IP (n=4 or 5 mice per group). No exclusion criteria were predetermined and no randomization was performed to allocate subjects in the study.

[2] = Pharmacokinetics of 2MeGlu and 2MeGln in mice; type: in vivo; conditions: 100 mg/kg IP, mouse brain; for time of peak brain concentration: for rac-2MeGln: 2MeGln
Procedure: C57BL/6 mice (Jackson Laboratory cat. no. 000664) were administered 100 mg/kg IP. […] Whole brain was promptly dissected and one half frozen at −80° C. until homogenization in ice cold PBS (pH 7.4) using a probe ultrasonic homogenizer (Branson Sonifier 450, Power: 5, Cycle: 30%, time: 10 s) on ice. The lysate was centrifuged (2,500 g for 15 min at 4° C.) and the supernatant was assayed using Pierce BCA Protein Assay Kit (23225) using BioTek Epoch plate spectrophotometer by recording absorbance at 562 nm. Two or three 10 μL aliquots of the homogenate were transferred to a 96 well plate and extracted with 190 μL of 60% acetonitrile in water containing 10 μM GABA-d6 or 10 μM Glu-d5 and Gln-d5 as internal standards. 40 μL aliquots of the extracts were then diluted with 120 μL of acetonitrile and prepared for LC-MS/MS analysis. Brain and serum half-lives were calculated using the ‘PKNCA’ package for R. Endogenous levels of Glu, Gln and GABA were determined in the brains of mice used in the pharmacokinetics experiment. MRM transitions specific for Glu, Gln and GABA were monitored simultaneously.

[3] = single 30 mg/kg IP, only at 11 minutes post injection
[4] = single 100 mg/kg IP, up to 6 minutes post injection

| SMILES | distance moved in the activity chamber vs vehicle [1, 3] | distance moved in the activity chamber vs vehicle [1, 4] | time of peak brain concentration [2] [min] | maximum brain concentration [2] [pmol/mg protein] | half-life ([2]; C57BL/6) [h] |
| --- | --- | --- | --- | --- | --- |
| CC(N)(CCC(N)=O)C(=O)O (racemic) [rac-2MeGln, rac-2-methylglutamine] | modest but significant reduction | not significantly different from vehicle at any time point | 25 |  |  |
| C[C@@](N)(CCC(=O)O)C(=O)O [(R)-2MeGlu, (R)-2-methylglutamic acid] | modest but significant reduction | significantly reduced | ≤ 5 | 30 | ~1.17 |
| C[C@](N)(CCC(=O)O)C(=O)O [(S)-2MeGlu, (S)-2-methylglutamic acid] | not significantly different | significantly reduced | 25 | 50 |  |
